Source: ChEMBL document CHEMBL1157872, “Theoretical models of pentamidine analogs activity based on their DNA minor groove complexes” (Eur J Med Chem, 2010)

Assays:
Nucleic Acid [1] = assay: Binding affinity to d(CGCGATATCGCG)2 dodecamer assessed as change in melting temperature; format: nucleic-acid assay
Nucleic Acid [2] = system: Nucleic Acid

## CCCCNC(=N)c1ccc(OCCOCCOc2ccc(C(=N)NCCCC)cc2)cc1
Nucleic Acid [1]
  ΔTm: 3.3 °C
Nucleic Acid [2]
  ΔTm: 3.84 °C

## COc1cc(C(=N)N)cc(OC)c1OCCCCCOc1c(OC)cc(C(=N)N)cc1OC
Nucleic Acid [1]
  ΔTm: 2.55 °C
Nucleic Acid [2]
  ΔTm: 2.35 °C

## N=C(N)c1ccc(/N=N/Nc2ccc(C(=N)N)cc2)cc1
Nucleic Acid [1]
  ΔTm: 11.9 °C

## CCN1CCN=C1c1ccc(-c2ccc(-c3ccc(C4=NCCN4CC)cc3)o2)cc1
Nucleic Acid [2]
  ΔTm: 1.9 °C

## N=C(N)c1ccc(-c2ccc(-c3ccc(C(=N)N)cc3)o2)cc1
Nucleic Acid [2]
  ΔTm: 11.7 °C

## N=C(NC1CCCCC1)c1ccc(OCCOCCOc2ccc(C(=N)NC3CCCCC3)cc2)cc1
Nucleic Acid [1]
  ΔTm: 4.3 °C
Nucleic Acid [2]
  ΔTm: 5.08 °C

## N=C(N)c1ccc(NCCNCCNc2ccc(C(=N)N)cc2)cc1
Nucleic Acid [1]
  ΔTm: 5.48 °C
Nucleic Acid [2]
  ΔTm: 5.84 °C

## N=C(N)c1ccc(OCCCCCOc2ccc(C(=N)N)cc2)cc1
Nucleic Acid [1]
  ΔTm: 6.58 °C
Nucleic Acid [2]
  ΔTm: 4.65 °C

## Cn1cc(NC(=O)c2cc(NC(=O)CNC(=N)N)cn2C)cc1C(=O)NCCC(=N)N
Nucleic Acid [2]
  ΔTm: 31 °C

## N=C(N)c1ccc(OCCOCCOc2ccc(C(=N)N)cc2)cc1
Nucleic Acid [1]
  ΔTm: 4.2 °C
Nucleic Acid [2]
  ΔTm: 2.92 °C

## CN(CCCCCN(C)c1ccc(C(=N)N)cc1)c1ccc(C(=N)N)cc1
Nucleic Acid [1]
  ΔTm: 1.1 °C
Nucleic Acid [2]
  ΔTm: 1.17 °C

## CCCNC(=N)c1ccc(-c2ccc(-c3ccc(C(=N)NCCC)cc3)o2)cc1
Nucleic Acid [2]
  ΔTm: 13 °C

## c1cc(-c2ccc(-c3ccc(C4=NCCN4)cc3)o2)ccc1C1=NCCN1
Nucleic Acid [2]
  ΔTm: 11.4 °C
